Data published in US4812482A, “Application of α-[[(2-hydroxy-1, 1-dimethyl-ethyl) amine] methyl] benzene methanol hydrochloride (EL-508) as a drug with antiinflammatory action” (Especialidades Latinas Medicamentos Universales, S.A. …, priority 1987, dated 1989).
Structures can show the parent of a compound that is named as a salt. Where two headings read alike, the source gives them in different places.

Assays:
croton oil oedema = test: croton oil oedema, topical application; type: in vivo; details: 6% aqueous or alcoholic solutions
Excerpt: (§1) Further, it is to be noted that the antiinflammatory activity of EL-508, after its topical application, in 6% aqueous or alcoholic solutions in acute experimental processes, is summarized in the following table in comparison to 6% benzidamine HC1 as a reference drug: […]

formalin peritonitis = test: formalin-induced peritonitis, oral; type: in vivo; details: 100 mg/Kg
[1] = tested on: vascular permeability (chloroform); test: vascular/capillary permeability, chloroform-induced extravasation; type: in vivo; details: for reduction of extravasation induced by chloroform: solution for topical application
Excerpt: (§2) In these tests Benzidamine HC1 lacked action.

kaolin oedema [2] = test: kaolin oedema, topical application; type: in vivo; details: 6% aqueous or alcoholic solutions
Excerpt: as §1

carrageenin peritonitis = test: carrageenin-induced peritonitis, oral; type: in vivo; details: 100 mg/Kg
ovoalbumin oedema [3] = test: ovoalbumin oedema, topical application; type: in vivo; details: 6% aqueous or alcoholic solutions
Excerpt: as §1

carrageenin oedema [4] = test: carrageenin oedema, topical application; type: in vivo; details: 6% aqueous or alcoholic solutions
Excerpt: as §1

[5] = tested on: vascular permeability (xylol); test: vascular/capillary permeability, xylol-induced extravasation; type: in vivo; details: for reduction of extravasation induced by xylol: solution for topical application
Excerpt: as §2

kaolin oedema [6] = test: kaolin-induced acute oedema, oral route; type: in vivo; details: rat, dose which produces 50% of oedema inhibition
Excerpt: (§3) ED50 are indicated, these corresponding to the dose which produces 50% of oedema inhibition.

acute toxicity LD50, rat = details: in vivo
carrageenin abscess = test: carrageenin abscess, oral route; type: in vivo; details: rat, dose which produces 50% of oedema inhibition
Excerpt: as §3

acute inflammation = test: experiments of acute inflammation, oral and topical, summary; type: in vivo
Excerpt: In looking for a drug with intense topical antiinflammatory activity and good tolerance, the compound α-[[(2-hydroxy-1, 1-dimethyl-ethyl) amine]methyl]benzene methanol hydrochloride was syntheiszed and developed, and its chemical structure is completely different from that of conventional non-steroid anti-inflammatory drugs.

carrageenin oedema [7] = test: carrageenin-induced acute oedema, oral route; type: in vivo; details: rat, dose which produces 50% of oedema inhibition
Excerpt: as §3

ulcerogenic action = details: in vivo
inflammatory processes = test: therapeutic index in the different experimental models; type: in vivo; details: vs reference compounds
[8] = acute and chronic toxicity and tolerance, summary; details: in vivo
[9] = tested on: skin, genital and conjunctival mucous membranes; design: species or system animals; details: in vivo
[10] = acute toxicity LD50, mouse; details: in vivo
adrenalectomized rats = test: antiinflammatory effect in adrenalectomized rats; type: in vivo
[11] = tested on: chronic inflammatory processes; test: experimental chronic inflammatory processes; type: in vivo
[12] = tested on: muscular-ligamentous pathological processes: luxations, sprains, contusions; test: clinical trial in muscular-ligamentous pathological processes, 6% aerosol; type: in vivo, human
Excerpt: Several clinical trials have been carried out with different pharmaceutical compositions with α-[[(2-hydroxy-1, 1-dimethyl-ethyl) amine]methyl]benzene methanol hydrocholride (EL-508) as active principle. In the 6% aerosol pharmaceutical composition the therapeutic action was studied in muscular-ligamentous pathological processes: luxations, sprains, contusions and the like.

rats = test: chronic toxicity over six months, rats; type: in vivo; details: p.o., up to 100 mg/kg/day
formol oedema = test: formol-induced acute oedema, oral route; type: in vivo; details: rat, dose which produces 50% of oedema inhibition
Excerpt: as §3

[13] = tested on: skin, genital and conjunctival mucous membranes; test: topical tolerance in human volunteers; type: in vivo; details: solution
peripheral blood flow = test: peripheral blood flow; details: in vivo
[14] = tested on: vaginitis of unknown ethiology or atrophic vaginitis and specific infectious vaginitis; test: clinical trials in vaginitis, vaginal solutions; type: in vivo, human; details: vaginal solutions at 5% and 0,2%
Procedure: Further, as to the pharmaceutical forms of solutions for vaginal applications at 5% and 0,2% various clinical trials were performed in patients with vaginitis of unknown ethiology or atrophic vaginitis and specific infectious vaginitis.

ovoalbumin oedema [15] = test: ovoalbumin-induced acute oedema, oral route; type: in vivo; details: rat, dose which produces 50% of oedema inhibition
Excerpt: as §3

dogs = test: chronic toxicity over six months, dogs; type: in vivo; details: p.o., up to 100 mg/kg/day
[16] = tested on: skin, conjunctive and vaginal mucous membranes; test: topical tolerance of the aqueous solution after repeated applications; type: in vivo

## CN(C)CCCOc1nn(Cc2ccccc2)c2ccccc12 [Benzidamine HCl, reference compound]
Croton oil oedema
  Inhibition % of oedemas, Croton oil: 44%
Formalin peritonitis
  percentage of inhibition, Formalin perit.: 15,6%
[1]
  reduction of extravasation induced by chloroform: lacked action
Kaolin oedema [2]
  Inhibition % of oedemas, Kaolin: 0%
Carrageenin peritonitis
  percentage of inhibition, Carrageenin perit.: 31,3%
Ovoalbumin oedema [3]
  Inhibition % of oedemas, ovoalbumin: 42,0%
Carrageenin oedema [4]
  Inhibition % of oedemas, carrageenin: 7%
[5]
  reduction of extravasation induced by xylol: lacked action

## CC(C)(CO)NCC(O)c1ccccc1 (stereo not drawn) [EL-508, α-[[(2-hydroxy-1,1-dimethyl-ethyl)amine]methyl]benzene methanol hydrochloride]
Kaolin oedema [6]
  ED50: 44.9 mg/kg
Acute toxicity LD50, rat; ip
  LD50: 350 mg/kg
Acute toxicity LD50, rat; iv
  LD50: 80 mg/kg
Acute toxicity LD50, rat; po
  LD50: 2080 mg/kg
Croton oil oedema
  Inhibition % of oedemas, Croton oil: 30%
Carrageenin abscess
  ED50: 9.4 mg/kg
Acute inflammation; oral and topical route, acute inflammation
  antiinflammatory activity: great antiinflammatory activity
Acute inflammation; vs fenylbutazone, pyridil-3-methylamine salicilate, benzidamine salicilate, etc.
  antiinflammatory effect compared with reference products: higher than the referenced products used
Carrageenin oedema [7]
  ED50: 29.8 mg/kg
Ulcerogenic action
  ulcerogenic action: slight ulcerogenic action
Formalin peritonitis
  percentage of inhibition, Formalin perit.: 28,1%
Formalin peritonitis; equal doses
  activity on formalin-induced peritonitis compared with reference drugs: more active than the reference drugs
Inflammatory processes
  therapeutic indices: considerably higher than for the reference compounds
[1]; all the administration routes
  activity against capillary permeability increases induced by chloroform: highly active
[1]
  reduction of extravasation induced by chloroform: 50%
[8]
  acute and chronic toxicity: acute and chronic toxicity was very low
  systematic and topical tolerance: systematic and topical tolerance has been demonstrated
  undesirable side effects: no undesirable side effects
Kaolin oedema [2]
  Inhibition % of oedemas, Kaolin: 47,5%
Carrageenin peritonitis
  percentage of inhibition, Carrageenin perit.: 70,8%
Carrageenin peritonitis; equal doses
  activity on carrageenin peritonitis compared with reference drugs: more active than the reference drugs
[9]
  topical tolerance: perfectly tolerated
[10]; ip
  LD50: 295 mg/kg
[10]; iv
  LD50: 79 mg/kg
[10]; po
  LD50: 1020 mg/kg
Ovoalbumin oedema [3]
  Inhibition % of oedemas, ovoalbumin: 40,6%
Adrenalectomized rats
  antiinflammatory effect: antiinflammatory effect is direct, without central or hormaonal stimulus
[11]
  activity on primary inflammatory phenomena: demonstrated its activity on primary inflammatory phenomena
[12]
  therapeutic action: therapeutic action higher than pyiridil-3-methyl amine salicylate and placebo
Carrageenin oedema [4]
  Inhibition % of oedemas, carrageenin: 48%
[5]; all the administration routes
  activity against capillary permeability increases induced by xylol: highly active
[5]
  reduction of extravasation induced by xylol: 50%
rats
  undesirable effects in chronic toxicity study: no undesirable effects attributable to the product
Formol oedema
  ED50: 21.7 mg/kg
[13]
  topical tolerance: perfectly tolerated
Peripheral blood flow
  effect on peripheral blood flow: did not modify at all peripheral blood flow
[14]
  efficacy in vaginitis: more efficent in these indications than iodic povidone and placebo
Ovoalbumin oedema [15]
  ED50: 16.7 mg/kg
dogs
  undesirable effects in chronic toxicity study: no undesirable effects attributable to the product
[16]
  topical tolerance: well tolerated

## CCCCC1C(=O)N(c2ccccc2)N(c2ccccc2)C1=O [Fenilbutazone, reference compound]
Carrageenin abscess
  ED50: 80 mg/kg
Carrageenin oedema [7]
  ED50: 200 mg/kg
Ovoalbumin oedema [15]
  ED50 Ovoalbumin: Inactive

## CCCCC1C(=O)N(c2ccccc2)N(c2ccc(O)cc2)C1=O (centres unmarked) [Oxyphenylbutazone, reference compound]
Formalin peritonitis
  percentage of inhibition, Formalin perit.: 7,5%
Carrageenin peritonitis
  percentage of inhibition, Carrageenin perit.: 58,8%
